The conditions of series [1]: cited from earlier work.
Series [2] is described as follows: PCL/SGF partition coefficient. The class given is physicochemical. Conditions: 5:1 PCL diol (MW 530):ethyl acetate vs FaSSGF. The source says:
Partitioning behavior of an adamantane-class drug can be measured between a polycaprolactone phase (PCL phase) and a simulated gastric fluid phase (SGF phase), to give the partition coefficient PPCL-SGF between the two phases. Log PPCL-SGF can also be calculated. A 5:1 mixture of polycaprolactone diol (MW 530):ethyl acetate can be used as the PCL phase, and fasted-state simulated gastric fluid (FaSSGF) can be used as the SGF phase, such that PPCL-SGF=(concentration in polycaprolactone diol)/(concentration in FaSSGF)).
Partitioning of active pharmaceutical ingredient (API), such as an adamantane-class drug such as memantine, between the structural polymer, polycaprolactone (PCL), and fasted state simulated gastric fluid (FaSSGF) is of interest for predicting API release rate from PCL-based formulations. To measure the PCL-SGF partition coefficient of an API, a concentrated stock solution of API was added to a mixture of 1 mL FaSSGF and 1 mL of 5:1 PCL diol (MW 530):ethyl acetate. The sample was vortexed and centrifuged at 10000 rpm for 5 minutes. The SGF phase was analyzed by HPLC to measure drug concentration. The PCL phase was diluted in methanol prior to quantification on HPLC.

Series [3] in a line: Therapeutic plasma concentrations of memantine (literature). The class given is in vivo. Conditions: conversion of 1 micromolar. Here is the method:
The maximum therapeutically relevant concentration of memantine is approximately 1 micromolar (Rammes et al., Curr. Neuropharmacol. 6(1): 55-78 (2008)), corresponding to a plasma level of about 180 ng/mL. A recommended therapeutic range is about 90 ng/mL to 150 ng/mL, while the laboratory alert value is 300 ng/mL (Hiemke et al., Pharmacopsychiatry 44:195 (2011)).

For series [4] the following is noted: dog, one compartment model; assumed input of the analysis; cited from earlier work.
The conditions of series [5]: human; input parameter of simulation; cited from earlier work.
Series [6] is described as follows: Thermal stability of memantine during hot melt processing. The class given is physicochemical. Conditions: blended with polymer (20% drug, 2% P407, 20% Eudragit RS, PCL); up to 160° C. for up to 20 minutes. As for the experimental part:
The stability of memantine under conditions of hot melt processing was tested. The formulation used for hot melt processing was 20% drug, 0.5% SiO2, 0.5% alpha tocopherol, 2% P407, 20% Eudragit RS, with the balance of material made up of PCL.

In the case of `CC12CC3CC(C)(C1)CC(N)(C3)C2` [memantine], the “laboratory alert value (plasma)” value in series [1] (Hiemke et al. 2011) was 300 ng/mL. Further, in series [1] (Rammes et al. 2008), the “maximum therapeutically relevant concentration” value is “approximately 1 micromolar”. For the same molecule, the “PCL/SGF Partition Coefficient” value in series [2] came out at 0.28. Besides, the “plasma level corresponding to maximum therapeutically relevant concentration” value in series [3] is listed as “about 180 ng/mL”. The “elimination rate constant (ke)” value in series [4] is 0.076 h⁻¹. In series [5], the “clearance (CL)” value was 5.2 L/h, the “mean volume of distribution” value is 9 to 11 L/kg and the “rate of absorption (Ka)” value was 0.21 h⁻¹. Moreover, the “degradation during hot melt processing” value in series [6] is “without significant degradation”.

The values above are taken from patent US11576866B2, “Gastric residence systems for sustained delivery of adamantane-class drugs” (Lyndra Therapeutics, Inc., priority 2016, dated 2023).
